Data taken from patent US7138361B2, “Herbicidal heterocycles” (E. I. du Pont de Nemours and Company, priority 2000, dated 2006).

What was measured:
Assay type in all cases: in vivo
[1] = system: barnyardgrass (Echinochloa crus-galli); experiment: Test C flooded paddy test; settings: for Barnyardgrass plant response rating: Flooded Paddy, scale 0 to 100, 0 no effect, 100 complete control; for Plant response rating, Barnyardgrass: flooded paddy test, scale 0 to 100 (0 no effect, 100 complete control)
How it was run: (§1)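 Each species was cultivated to 2 leaves in flooded paddy pots, then treated. After a greenhouse period of 12–14 days, the plants were scored visually relative to controls from 0 (no effect) to 100 (complete control).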

[2] = system: duck salad (Heteranthera limosa); experiment: Test C flooded paddy test; settings: for Ducksalad plant response rating: Flooded Paddy, scale 0 to 100, 0 no effect, 100 complete control; for Plant response rating, Ducksalad: flooded paddy test, scale 0 to 100 (0 no effect, 100 complete control)
How it was run: as §1

[3] = system: smallflower flatsedge (Cyperus difformis); experiment: Test C flooded paddy test; settings: for Flatsedge plant response rating: Flooded Paddy, scale 0 to 100, 0 no effect, 100 complete control; for Plant response rating, Flatsedge: flooded paddy test, scale 0 to 100 (0 no effect, 100 complete control)
How it was run: as §1

[4] = system: yellow nutsedge (Cyperus esculentus); experiment: Test C preemergence
From the text: (§2) Seeds of plant species selected from bermudagrass (Cynodon dactylon), Surinam grass (Brachiaria decumbens), cocklebur (Xanthium strumarium), corn (Zea mays), crabgrass (Digitaria sanguinalis), woolly cupgrass (Eriochloa villosa), giant foxtail (Setaria faberii), goosegrass (Eleusine indica), johnsongrass (Sorghum halepense), kochia (Kochia scoparia), lambsquarters (Chenopodium album), morningglory (Ipomoea hederacea), yellow nutsedge (Cyperus esculentus), pigweed (Amaranthus retroflexus), common ragweed (Ambrosia elatior), soybean (Glycine max) and velvetleaf (Abutilon theophrasti) were planted and treated preemergence with test chemicals formulated in a non-phytotoxic solvent mixture which included a surfactant.
(§3) At the same time, plants selected from these crop and weed species and also winter barley (Hordeum vulgare), blackgrass (Alopecurus myosuroides), canary grass (Phalaris minor), chickweed (Stellaria media), downy brome (Bromus tectorum), green foxtail (Setaria viridis), Italian ryegrass (Lolium multiflorum), wheat (Triticum aestivum), wild oat (Avena fatua) and windgrass (Apera spica-venti) were treated with postemergence applications of some of the test chemicals formulated in the same manner. Plants ranged in height from 2 to 18 cm (1- to 4-leaf stage) for postemergence treatments. Plant species in the flooded paddy test consisted of rice (Oryza saliva), smallflower flatsedge (Cyperus difformis), duck salad (Heteranthera limosa) and barnyardgrass (Echinochloa crus-galli) grown to the 2-leaf stage for testing. Treated plants and controls were maintained in a greenhouse for 12 to 14 days, after which time all species were compared to controls and visually evaluated. Plant response ratings, summarized in Table C, are based on a scale of 0 to 100 where 0 is no effect and 100 is complete control. A dash (-) response means no test result.

Nightshade = experiment: Test C preemergence
From the text: as §2, §3

[5] = system: velvetleaf (Abutilon theophrasti); experiment: Test C preemergence
From the text: as §2, §3

[6] = system: lambsquarters (Chenopodium album); experiment: Test C preemergence
From the text: as §2, §3

soybean (Glycine max) = experiment: Test C preemergence
From the text: as §2, §3

[7] = system: pigweed (Amaranthus retroflexus); experiment: Test C preemergence
From the text: as §2, §3

[8] = system: giant foxtail (Setaria faberii); experiment: Test C preemergence
From the text: as §2, §3

Sunflower = experiment: Test C preemergence; settings: Rate 125 g/ha; scale 0 to 100, 0 no effect, 100 complete control
From the text: as §2, §3

[9] = system: woolly cupgrass (Eriochloa villosa); experiment: Test C preemergence
From the text: as §2, §3

[10] = system: bermudagrass (Cynodon dactylon); experiment: Test C preemergence
From the text: as §2, §3

corn (Zea mays) = experiment: Test C preemergence
From the text: as §2, §3

[11] = system: morningglory (Ipomoea hederacea); experiment: Test C preemergence
From the text: as §2, §3

[12] = system: goosegrass (Eleusine indica); experiment: Test C preemergence
From the text: as §2, §3

kochia (Kochia scoparia) = experiment: Test C preemergence
From the text: as §2, §3

[13] = system: cocklebur (Xanthium strumarium); experiment: Test C preemergence
From the text: as §2, §3

[14] = system: johnsongrass (Sorghum halepense); experiment: Test C preemergence
From the text: as §2, §3

[15] = system: Surinam grass (Brachiaria decumbens); experiment: Test C preemergence
From the text: as §2, §3

[16] = system: crabgrass (Digitaria sanguinalis); experiment: Test C preemergence
From the text: as §2, §3

[17] = Rate 62 g/ha, scale 0 to 100, 0 no effect, 100 complete control
[18] = Rate 125 g/ha, scale 0 to 100, 0 no effect, 100 complete control
[19] = preemergence, Rate 31 g/ha, scale 0 to 100
[20] = preemergence, Rate 250 g/ha, scale 0 to 100, 0 no effect, 100 complete control
[21] = Rate 250 g/ha, scale 0 to 100, 0 no effect, 100 complete control
[22] = preemergence, Rate 250 g/ha, visual evaluation after 12 to 14 days
[23] = preemergence, Rate 62 g/ha, scale 0 to 100

CCC(CC)c1ccn(C2CCN(c3ccc(C)c(OC)c3)C2=O)n1 (centres unmarked) [Compound 81]
50: Plant response rating, Surinam grass [15, 18]
30: Plant response rating, Velvetleaf [5, 18] | Plant response rating, Soybean (soybean (Glycine max); [19]) | Plant response rating, Foxtail, Giant [8, 19] | Plant response rating, Cupgrass, Woolly [9, 17] | Plant response rating, Cupgrass, Woolly [9, 18]
0: Plant response rating, Nutsedge [4, 17] | Plant response rating, Nutsedge [4, 18] | Plant response rating, Nutsedge [4, 19] | Plant response rating, Nutsedge [4, 20] | Plant response rating, Velvetleaf [5, 19] | Plant response rating, Sunflower (Sunflower) | Plant response rating, Cupgrass, Woolly [9, 19] | Plant response rating, Corn (corn (Zea mays); [17]) | Plant response rating, Corn (corn (Zea mays); [18]) | Plant response rating, Corn (corn (Zea mays); [19]) | Plant response rating (0 to 100), Corn (corn (Zea mays); [22]) | Plant response rating, Morningglory [11, 17] | Plant response rating, Morningglory [11, 19] | Plant response rating, Cocklebur [13, 17] | Plant response rating, Cocklebur [13, 18] | Plant response rating, Cocklebur [13, 19] | Plant response rating, Johnsongrass [14, 17] | Plant response rating, Johnsongrass [14, 19] | Plant response rating, Surinam grass [15, 19]
60: Plant response rating, Crabgrass [16, 19]
100: Ducksalad plant response rating ([2]; Rate 500 g/ha) | Plant response rating, Nightshade (Nightshade; [17]) | Plant response rating, Nightshade (Nightshade; [18]) | Plant response rating, Nightshade (Nightshade; [21]) | Plant response rating, Lambsquarters [6, 17] | Plant response rating, Lambsquarters [6, 18] | Plant response rating, Lambsquarters [6, 19] | Plant response rating, Lambsquarters [6, 20] | Plant response rating, Soybean (soybean (Glycine max); [20]) | Plant response rating, Pigweed [7, 18] | Plant response rating, Pigweed [7, 19] | Plant response rating, Pigweed [7, 20] | Plant response rating, Foxtail, Giant [8, 18] | Plant response rating (0 to 100), Foxtail, Giant [8, 22] | Plant response rating (0 to 100), Cupgrass, Woolly [9, 22] | Plant response rating, Bermudagrass [10, 17] | Plant response rating, Bermudagrass [10, 18] | Plant response rating, Bermudagrass [10, 19] | Plant response rating (0 to 100 where 0 is no effect and 100 is complete control), Bermudagrass [10, 22] | Plant response rating, Goosegrass [12, 17] | Plant response rating, Goosegrass [12, 18] | Plant response rating (0 to 100), Goosegrass [12, 22] | Plant response rating, Kochia (kochia (Kochia scoparia); [17]) | Plant response rating, Kochia (kochia (Kochia scoparia); [18]) | Plant response rating, Kochia (kochia (Kochia scoparia); [19]) | Plant response rating (0 to 100), Kochia (kochia (Kochia scoparia); [22]) | Plant response rating (0 to 100), Surinam grass [15, 22] | Plant response rating, Crabgrass [16, 17] | Plant response rating, Crabgrass [16, 18] | Plant response rating (0 to 100), Crabgrass [16, 22]
90: Barnyardgrass plant response rating ([1]; Rate 250 g/ha) | Barnyardgrass plant response rating ([1]; Rate 500 g/ha) | Ducksalad plant response rating ([2]; Rate 250 g/ha) | Plant response rating, Ducksalad ([2]; Rate 125 g/ha) | Flatsedge plant response rating ([3]; Rate 250 g/ha) | Flatsedge plant response rating ([3]; Rate 500 g/ha) | Plant response rating, Flatsedge ([3]; Rate 62 g/ha) | Plant response rating, Flatsedge ([3]; Rate 125 g/ha) | Plant response rating, Foxtail, Giant [8, 17] | Plant response rating, Goosegrass [12, 19]
20: Plant response rating, Barnyardgrass ([1]; Rate 62 g/ha) | Plant response rating, Morningglory [11, 18] | Plant response rating, Morningglory [11, 20] | Plant response rating (0 to 100), Cocklebur [13, 22] | Plant response rating, Johnsongrass [14, 18] | Plant response rating (0 to 100), Johnsongrass [14, 22] | Plant response rating, Surinam grass [15, 17]
80: Plant response rating, Barnyardgrass ([1]; Rate 125 g/ha) | Plant response rating, Ducksalad ([2]; Rate 62 g/ha) | Plant response rating, Velvetleaf [5, 20]
70: Plant response rating, Nightshade (Nightshade; Rate 31 g/ha, scale 0 to 100)

Cc1ccc(N2CCC(n3ccc(C(C)(C)C)n3)C2=O)cc1OCCCl (centres unmarked) [Compound 109]
80: Flatsedge plant response rating ([3]; Rate 250 g/ha) | Plant response rating, Soybean (soybean (Glycine max); [23]) | Plant response rating, Pigweed [7, 20] | Plant response rating, Surinam grass [15, 18]
40: Plant response rating, Flatsedge ([3]; Rate 62 g/ha)
30: Plant response rating, Morningglory [11, 19] | Plant response rating, Cocklebur [13, 18] | Plant response rating, Cocklebur [13, 20]
10: Plant response rating, Cupgrass, Woolly [9, 19] | Plant response rating, Johnsongrass [14, 23]
20: Plant response rating, Soybean (soybean (Glycine max); [19]) | Plant response rating, Pigweed [7, 19] | Plant response rating, Pigweed [7, 23] | Plant response rating, Foxtail, Giant [8, 18]
100: Flatsedge plant response rating ([3]; Rate 500 g/ha) | Plant response rating, Nightshade (Nightshade; [18]) | Plant response rating, Nightshade (Nightshade; [21]) | Plant response rating, Velvetleaf [5, 18] | Plant response rating, Velvetleaf [5, 23] | Plant response rating, Velvetleaf [5, 20] | Plant response rating, Lambsquarters [6, 18] | Plant response rating, Lambsquarters [6, 19] | Plant response rating, Lambsquarters [6, 23] | Plant response rating, Lambsquarters [6, 20] | Plant response rating, Cupgrass, Woolly [9, 20] | Plant response rating, Bermudagrass [10, 18] | Plant response rating, Bermudagrass [10, 19] | Plant response rating, Bermudagrass [10, 23] | Plant response rating, Bermudagrass [10, 20] | Plant response rating, Morningglory [11, 18] | Plant response rating, Morningglory [11, 20] | Plant response rating, Goosegrass [12, 18] | Plant response rating, Goosegrass [12, 23] | Plant response rating, Goosegrass [12, 20] | Plant response rating, Kochia (kochia (Kochia scoparia); [18]) | Plant response rating, Kochia (kochia (Kochia scoparia); [23]) | Plant response rating, Kochia (kochia (Kochia scoparia); [20]) | Plant response rating, Crabgrass [16, 18] | Plant response rating, Crabgrass [16, 19] | Plant response rating, Crabgrass [16, 23] | Plant response rating, Crabgrass [16, 20]
0: Plant response rating, Barnyardgrass ([1]; Rate 62 g/ha) | Plant response rating, Barnyardgrass ([1]; Rate 125 g/ha) | Plant response rating, Ducksalad ([2]; Rate 62 g/ha) | Plant response rating, Ducksalad ([2]; Rate 125 g/ha) | Plant response rating, Nutsedge [4, 18] | Plant response rating, Nutsedge [4, 19] | Plant response rating, Nutsedge [4, 23] | Plant response rating, Nutsedge [4, 20] | Plant response rating, Foxtail, Giant [8, 19] | Plant response rating, Foxtail, Giant [8, 23] | Plant response rating, Corn (corn (Zea mays); [18]) | Plant response rating, Corn (corn (Zea mays); [19]) | Plant response rating, Corn (corn (Zea mays); [23]) | Plant response rating, Corn (corn (Zea mays); [20]) | Plant response rating, Cocklebur [13, 19] | Plant response rating, Cocklebur [13, 23] | Plant response rating, Johnsongrass [14, 19] | Plant response rating, Surinam grass [15, 19] | Plant response rating, Surinam grass [15, 23]
70: Barnyardgrass plant response rating ([1]; Rate 250 g/ha) | Ducksalad plant response rating ([2]; Rate 250 g/ha) | Plant response rating, Pigweed [7, 18]
90: Barnyardgrass plant response rating ([1]; Rate 500 g/ha) | Ducksalad plant response rating ([2]; Rate 500 g/ha) | Plant response rating, Nightshade (Nightshade; Rate 62 g/ha, scale 0 to 100) | Plant response rating, Soybean (soybean (Glycine max); [18]) | Plant response rating, Soybean (soybean (Glycine max); [20]) | Plant response rating, Foxtail, Giant [8, 20] | Plant response rating, Sunflower (Sunflower) | Plant response rating, Cupgrass, Woolly [9, 18] | Plant response rating, Cupgrass, Woolly [9, 23] | Plant response rating, Morningglory [11, 23] | Plant response rating, Goosegrass [12, 19] | Plant response rating, Kochia (kochia (Kochia scoparia); [19]) | Plant response rating, Surinam grass [15, 20]
50: Plant response rating, Flatsedge ([3]; Rate 125 g/ha) | Plant response rating, Nightshade (Nightshade; Rate 31 g/ha, scale 0 to 100) | Plant response rating, Velvetleaf [5, 19] | Plant response rating, Johnsongrass [14, 18] | Plant response rating, Johnsongrass [14, 20]
